Assay results reported in US10501413B2, “Inhibitors of the Notch transcriptional activation complex and methods for use of the same” (UNIVERSITY OF MIAMI, priority 2015, dated 2019).

What was measured:
[1] = test system: esophageal adenocarcinoma PDX tumors; experiment: Esophageal adenocarcinoma patient-derived xenograft (PDX); assay type: in vivo, mouse; conditions: NSG mice, two PDX models, daily IP, 1-134-83 15 mg/kg, DAPT 20 mg/kg
Description: The effect of the inhibitors of the disclosure on the growth of an established tumor also was investigated using two independent esophageal adenocarcinoma patient-derived xenograft (“PDX”) models. Tumors were established in NSG mice to the size of 250 mm^3 prior to the initiation of treatment. Mice were dosed daily via intraperitoneal (“IP”) injection with either Inhibitor No. 1-134-83 (15 mg/kg) or DAPT (20 mg/kg), and compared to DMSO vehicle control. […] Following 24 days of treatment, tumors were harvested and Notch-target gene transcription was evaluated. […] (FIG. 4) Six-week-old NOD-SCID gamma (“NSG”) mice were purchased from Jackson Laboratories and CD-1 Nude mice were purchased from Charles River Laboratories. For the cell line based xenografts assay, 5×10^6 OE19 cells in 200 μl serum-free culture medium were injected subcutaneously per mouse. The mice in the treatment group were injected with 15 mg/kg of Inhibitor No. 1-134-83 daily, and the mice in the control group were injected with the same volume of vehicle (DMSO). Subcutaneous tumor growth was measured once every 4 days using calipers along with body weight. The experiment was discontinued on day 28. PDX cancer models were established, as described in Zhang et al, Establishment of Patient-Derived Xenograft (PDX) Models of Human Breast Cancer, Current Protocols in Mouse Biology, 3:21-29 (2013), in NSG mice. Briefly, 10 mm^3 pieces of primary EAC29 PDX tumor were transplanted subcutaneously into the flanks of NSG mice using a 13G telescopic needle. When the tumors reached 200 mm^3, the mice were split into two uniform groups for treatment. Compound 1-134-83 (15 mg/kg) and vehicle were administered daily by inraperitoneal (“IP”) injection for 24 days. Tumor growth was monitored every 4 days and tumor volume was measured by the formula: Volume=(S×S×L)/2, where S and L are the short and long dimensions. The xenograft tumors were harvested, weighed and samples were subjected to histological examination and by qPCR.

[2] = test system: NICD in OE33 and 786-0 cells; experiment: Western analysis of NICD levels; assay type: cell-based, human; conditions: OE33 and 786-0 cell lysates
Description: (§1) The effect of inhibitor treatment on the assembly of the NTC in cells was investigated.
Protein analysis was carried out using conventional SDS-PAGE and transfer techniques. Blots were probed with the indicated antibody (“Ab”), using standard conditions, and detected using enhanced chemiluminescence (“ECL”). The following Ab were used: anti-Notch1 (ab52627, abcam), anti-Notch1^val1744 (4147S, Cell Signaling Technology) and anti-GAPDH (ab9483, Abcam).

[3] = test system: cancer cell lines (OE33, 786-0 and panel); experiment: Colony formation assay; assay type: cell-based, human; conditions: 7 days
Description: (§2) The effect of inhibitor treatment on Notch-target gene transcription also was investigated (FIGS. 2C and 2D). […] As proof of specificity, transcription of the housekeeping gene, HPRT, was unaltered in treated cells. To test the effects of Notch inhibition on proliferation, a colony formation assay was performed.
(§3) To extend the analysis of tumor cell growth inhibition, several commonly used cancer cell lines were selected to test for sensitivity to Inhibitor No. 1-134-83 (FIGS. 3A and 3B). […] In this analysis, sensitivity to DAPT is taken to indicate specific inhibition of Notch activity. […] Cells that are refractory to DAPT were equally resistant to Inhibitor No. 1-134-83.
Cells were plated into a 6 well plate at a density of 2000 cells/cm^2. Inhibitor treatment commenced 24 hours post seeding, and the media containing inhibitor was changed every 48 hours thereafter. After 168 hours, cells were fixed with ice cold methanol for 10 minutes, stained for 1 hour with crystal violet, de-stained with water, and allowed to dry.

[4] = test system: MAML1 and Notch1 occupancy on HES1 promoter in OE33 and 786-0 cells; experiment: Chromatin immunoprecipitation (ChIP) on the HES1 locus; assay type: cell-based, human; conditions: 24 hours
Description: as §1
Cells (8×10^6 OE33 cells or 10×10^6 786-0 cells) were plated onto a 15 cm tissue culture dish a day prior to treatment. Cells were then treated for 24 hours with (N—[N-(3,5-difluorophenacetyl)-L-alanyl]-S-phenylglycine t-butyl ester (“DAPT”, 5 μM), Inhibitor No. 1-134-83 (25 μM), or DMSO vehicle. Following treatment, cells were cross-linked for 10 minutes with 1% formaldehyde. The reaction was then stopped by adding […] glycine. Cells were collected in SDS lysis buffer (1% SDS, 10 mM EDTA, 50 mM Tris-HCl pH 8.0) and sonicated to yield chromatin fragments of approximately 300 to 800 bp (8 minutes at high level for OE33 cells; 5 minutes at medium level for 786-0 cells in BIORUPTOR UCD-200 sonicator). Lysates were divided into equal parts and immunoprecipitated with either α-Notch1 (A301-894A, Bethyl Laboratories) or α-MAML1 (12166s, Cell Signaling Technology) antibody. Protein:DNA immunoprecipitates were then reverse cross-linked at 65° C. in 200 mM NaCl for 4 hours, followed by incubation with RNase A and proteinase K. DNA was then purified using a PCR purification kit (28104,
Qiagen). Immunoprecipitated DNA was then detected by SYBR green qPCR using HES1 specific oligonucleotide primers (forward: 5′CGTGTCTCCTCCTCCCATT3′; reverse: 5′GGGGGATTCCGCTGTTAT3′).

[5] = test system: Notch target gene transcription; experiment: RT-qPCR of Notch target genes in cancer cell lines; assay type: cell-based, human
Description: as §2, §3
RT-PCR analysis was performed using TaqMan probes according to manufacturer's instructions. In particular, 80 ng of RNA equivalent was used per reaction. Gene expression was normalized to the TATA-binding protein (“TBP”) gene. As a control, hypoxanthine phosphoribosyltransferase 1 (“HPRT”) gene expression was also monitored.

CSL = CSL (Homo sapiens, UniProt Q06330); experiment: Surface plasmon resonance binding to CSL; conditions: SPR, equilibrium response fitted to 1:1 binding model
Chain of CSL (Q06330 whole entry): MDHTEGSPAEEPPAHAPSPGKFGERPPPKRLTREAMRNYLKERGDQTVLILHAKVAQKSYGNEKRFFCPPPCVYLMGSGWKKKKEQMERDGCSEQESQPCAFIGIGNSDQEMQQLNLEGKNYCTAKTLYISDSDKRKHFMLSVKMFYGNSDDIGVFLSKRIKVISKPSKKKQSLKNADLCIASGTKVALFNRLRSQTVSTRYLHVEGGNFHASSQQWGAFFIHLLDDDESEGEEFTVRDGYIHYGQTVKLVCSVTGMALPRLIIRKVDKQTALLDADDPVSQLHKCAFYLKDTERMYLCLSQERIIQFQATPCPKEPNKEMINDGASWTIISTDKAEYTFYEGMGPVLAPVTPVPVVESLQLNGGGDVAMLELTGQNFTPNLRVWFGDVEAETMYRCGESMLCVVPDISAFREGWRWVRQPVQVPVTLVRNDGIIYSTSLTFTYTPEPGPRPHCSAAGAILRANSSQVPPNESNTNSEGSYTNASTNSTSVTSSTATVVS
Description: (§4) The inhibitors described herein were subjected to surface plasmon resonance (“SPR”) to determine their binding constants to the NICD and CSL components of the NTC. In particular, the target protein (NICD1) was immobilized on the dextran surface of the SPR sensor chip. Through a microflow system, a solution with the inhibitor was injected over the immobilized protein layer. The inhibitor bound to the immobilized protein, which led to an increase in SPR signal, indicating association of the ligand to the target protein. After 45 seconds, buffer solution was injected on the microfluidics that dissociated the bound complex between the ligand and the inhibitor. As the inhibitor dissociated from the ligand, a decrease in SPR signal was observed. The equilibrium dissociation constant KD was determined by plotting the equilibrium response (Req) as a function of the concentration of the ligand, and fitting the data to a 1:1 binding model. The results are listed in […].

NICD1 = biological target: T1, NICD1 (Homo sapiens, UniProt P46531); experiment: Surface plasmon resonance binding to immobilized NICD; conditions: SPR, equilibrium response fitted to 1:1 binding model
T1 construct: the intracellular domain of Notch (“NICD”)
T1 sequence (P46531 1754-2555 limits assumed): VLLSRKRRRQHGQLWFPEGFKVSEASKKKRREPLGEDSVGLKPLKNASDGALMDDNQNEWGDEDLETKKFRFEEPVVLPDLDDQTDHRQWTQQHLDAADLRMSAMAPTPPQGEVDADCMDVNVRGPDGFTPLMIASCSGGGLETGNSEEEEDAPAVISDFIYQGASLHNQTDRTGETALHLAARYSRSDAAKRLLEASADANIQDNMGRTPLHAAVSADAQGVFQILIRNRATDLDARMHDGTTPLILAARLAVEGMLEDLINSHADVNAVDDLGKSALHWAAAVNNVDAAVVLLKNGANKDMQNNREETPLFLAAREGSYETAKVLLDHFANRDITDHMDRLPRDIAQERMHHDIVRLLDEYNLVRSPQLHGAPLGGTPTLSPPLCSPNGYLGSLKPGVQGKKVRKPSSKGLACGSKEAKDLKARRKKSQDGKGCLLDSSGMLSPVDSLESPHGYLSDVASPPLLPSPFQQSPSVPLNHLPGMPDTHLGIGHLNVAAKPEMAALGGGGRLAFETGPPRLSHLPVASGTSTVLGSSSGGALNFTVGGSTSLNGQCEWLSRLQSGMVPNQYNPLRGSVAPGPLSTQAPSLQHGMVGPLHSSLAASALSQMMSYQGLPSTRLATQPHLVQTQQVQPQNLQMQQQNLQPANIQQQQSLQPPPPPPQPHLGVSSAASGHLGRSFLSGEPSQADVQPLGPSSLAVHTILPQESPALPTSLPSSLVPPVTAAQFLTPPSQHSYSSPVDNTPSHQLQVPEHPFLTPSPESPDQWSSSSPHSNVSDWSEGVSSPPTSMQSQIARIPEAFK
Description: as §4

[6] = biological target: T2, Notch transcriptional activation complex (CSL, Notch1, MAML1 on DNA) (Homo sapiens, UniProt P46531+Q06330); experiment: Notch complex assembly assay (ALPHASCREEN); assay type: biochemical
T2 construct: the intracellular domain of Notch (“NICD”); made in house; host or cells: SF21 insect cells (baculovirus)
T2 sequence (P46531 1754-2555 limits assumed): as above
T2 sequence (Q06330 whole entry, the tested form may be a part): as the sequence (Q06330 whole entry) above
Description: An in vitro assay was developed to monitor the assembly of the Notch transcriptional complex (“NTC”) on DNA. The NTC, which includes the Notch, Mastermind (“MAML1”), and CSL proteins, binds to a specific DNA sequence in a CSL-dependent manner. For the assay, baculovirus produced CSL, Notch, and MAML1 were mixed together with a biotinylated DNA oligomer containing the CSL target sequence. Assembly of the NTC on DNA was then monitored with the proximity-based ALPHASCREEN (Perkin Elmer) using streptavidin and protein A beads (FIGS. 1A and 1B). A signal results when MAML1 is recruited to CSL bound DNA.
All recombinant proteins were expressed using baculovirus expression vectors in SF21 cells and purified. Unless otherwise stated, all assays contained 125 fmol of double stranded oligonucleotide, CSL, Notch1 and MAML1 proteins. Reactions were carried out in Tris-buffered saline with 0.1% Tween (“TBS-T”) buffer containing 0.2% bovine serum albumin (“BSA”) and 100 ug/mL salmon sperm DNA. Briefly, the Notch complex was assembled on a biotinylated double stranded (“DS”) oligonucleotide harboring one CSL binding site (5′-[…]-3′). Complex assembly was quantitated using ALPHASCREEN technology (Perkin Elmer). Proteins in the complexes were detected using specific antibodies to either MAML1 (Cell signaling, D3K7B), Notch1 (Abcam, 52627) or CSL (anti-His, Abcam 18184). Streptavidin conjugated acceptor beads (Perkin Elmer, 6760002) were used to bind the DS oligonucleotide, and Protein-A conjugated donor beads (Perkin Elmer, 6760137) were used to detect antibody-coated proteins. For screening compounds, Notch transcriptional activation complex (“NTC”) components were added to wells that already contained the inhibitor to be assayed and allowed to incubate for 30 minutes. The ALPHASCREEN plate (Perkin Elmer, 6008350) was then read on an Envision Plate reader (Perkin Elmer) as specified by the manufacturer.
Determination of Equilibrium Dissociation Constants (KD) and Half Maximal Inhibitory Concentrations (IC50)

SMILES	Kd (CSL) [µM]	Kd (NICD1) [µM]	IC50 [6] [µM]	other results
C[C@H](NC(=O)Cc1cc(F)cc(F)c1)C(=O)N[C@H](C(=O)OC(C)(C)C)c1ccccc1 [DAPT, N—[N-(3,5-difluorophenacetyl)-L-alanyl]-S-phenylglycine t-butyl ester, reference compound]	–	–	–	growth of established tumor [1]: stunted growth to a similar level achieved with DAPT treatment; levels of NICD in cells [2]: decrease in the NICD pool; colony formation ([3]; 786-0 and OE33 cells): inhibited the cell colony forming ability of cells; colony formation ([3]; sensitive (Notch dependent) cell lines): decrease in colony formation; occupancy of MAML1 on the HES1 promoter [4]: decreased; occupancy of NOTCH1 on the HES1 promoter [4]: decreased; Notch target gene transcription ([5]; OE33 and 786-0 cells, qPCR): significant decrease; transcription of control gene HPRT ([5]; OE33 and 786-0 cells, qPCR): not affected; Notch target gene transcription ([5]; insensitive cancer cell lines of the panel, 48 hrs): do not show a statistically significant reduction; Notch target gene transcription ([5]; sensitive cancer cell lines of the panel, 48 hrs, DAPT 10, 1-134-83 15 and 25 μM): significantly reduced
COc1cc(/C=C2\SC(=S)NC2=O)ccc1OCC(=O)O [1-134-02]	3.6 ± 0.9	2.9 ± 0.6	0.5	–
C=CCc1cc(/C=C2\SC(=S)NC2=O)cc(OC)c1OCC(=O)O [1-134]	15 ± 3	17 ± 5	6	–

Second part, led by results:

Kd (CSL) [µM]	Kd (NICD1) [µM]	IC50 [6] [µM]	SMILES	other results
6.4 ± 0.7	5.7 ± 0.9	0.5	COc1cccc(/C=C2\SC(=S)N(CC(=O)N(C)C)C2=O)c1O [NADi-203, (Z)-2-(5-(2-Hydroxy-3-methoxybenzylidene)-4-oxo-2-thioxothiazolidin-3-yl)-N,N-dimethylacetamide]	–
3.4 ± 0.7	25 ± 4	0.07	O=C(O)COc1ccccc1/C=C1\SC(=S)NC1=O [NADi-090]	–
13 ± 2	3.7 ± 0.8	0.5	CN(C)C(=O)CN1C(=O)/C(=C/c2cc(F)ccc2O)SC1=S [NADi-239, (Z)-2-(5-(5-Fluoro-2-hydroxybenzylidene)-4-oxo-2-thioxothiazolidin-3-yl)-N,N-dimethylacetamide]	–
